Measured values published in BindingDB's records for patent US10744117 (The Scripps Research Institute; The University of Toledo, 2020).
pIC50: −log10 of the molar value.

Biological target: T1, Peroxisome proliferator-activated receptor gamma (Homo sapiens, UniProt P37231)
T1 sequence (P37231 whole entry): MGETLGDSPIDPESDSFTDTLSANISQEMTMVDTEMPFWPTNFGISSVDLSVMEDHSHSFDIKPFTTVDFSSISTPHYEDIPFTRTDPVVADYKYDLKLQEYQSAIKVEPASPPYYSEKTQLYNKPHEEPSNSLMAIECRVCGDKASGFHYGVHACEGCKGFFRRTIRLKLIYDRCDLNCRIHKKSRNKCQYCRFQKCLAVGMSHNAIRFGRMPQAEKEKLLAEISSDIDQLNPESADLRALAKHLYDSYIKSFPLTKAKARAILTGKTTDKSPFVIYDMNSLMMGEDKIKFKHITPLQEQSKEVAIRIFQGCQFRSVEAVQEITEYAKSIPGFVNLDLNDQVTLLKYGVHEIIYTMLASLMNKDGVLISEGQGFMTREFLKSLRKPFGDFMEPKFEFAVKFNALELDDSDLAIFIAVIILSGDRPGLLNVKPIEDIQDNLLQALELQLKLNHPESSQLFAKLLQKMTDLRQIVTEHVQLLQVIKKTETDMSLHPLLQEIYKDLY

pIC50: 4.82
SMILES: Cc1c(C)n(Cc2ccc(-c3ccc(Cl)c(O[C@H](C)C(=O)O)c3)cc2)c2ccc(C(=O)N[C@@H](C)c3ccc(C(C)(C)C)cc3)cc12 [US10744117, Compound IA-58]
